According to patent publication US20250382332A1, “NOVEL ALPHA-FACTOR BASED PEPTIDES WITH ANTIFUNGAL ACTIVITY” (INVAIO SCIENCES, INC., priority 2024, published 2025):
Peptide text beside a SMILES is read from it.

Test system: Botrytis cinerea (B05.10)
Assay: Resazurin antifungal assay of 180 alpha-factor peptide variants towards Botrytis (Example 2)
Assay type: cell-based
Details: % inhibition of fungal growth, Botrytis conidia, resazurin; for Inhibition at 50 μM: peptide 50 μM; for Inhibition at 100 μM: peptide 100 μM
Summary of the method: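 B. cinerea B05.10 conidia (5000/well) were exposed to peptides at 100, 50, 20, 15 and 10 μM final for 24 h at 20° C. Resazurin was then added and fluorescence read at 570/620 nm. Percent growth inhibition was calculated against conidia-only wells, with four technical replicates.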

Row | Compound | Inhibition at 50 μM [%] | Inhibition at 100 μM [%]
1 | CSCC[C@H](NC(=O)[C@@H]1CCCN1C(=O)[C@H](CCC(=O)O)NC(=O)CNC(=O)[C@@H]1CCCN1C(=O)[C@H](CCCCN)NC(=O)[C@H](CC(C)C)NC(=O)[C@H](CC(N)=O)NC(=O)[C@H](CC(C)C)NC(=O)[C@H](Cc1c[nH]c2ccccc12)NC(=O)[C@H](Cc1c[nH]cn1)NC(=O)[C@@H]1CCCN1)C(=O)N[C@@H](Cc1ccc(O)cc1)C(=O)O [compound 158] (H-PHWLNLKPGEPMY-OH; N-terminus and C-terminus assumed) | <90 | <90
2 | CSCC[C@H](NC(=O)[C@H](CO)NC(=O)[C@H](CCC(N)=O)NC(=O)CNC(=O)[C@@H]1CCCN1C(=O)[C@H](CCCCN)NC(=O)[C@H](Cc1ccccc1)NC(=O)[C@H](CC(N)=O)NC(=O)[C@H](CC(C)C)NC(=O)[C@H](CO)NC(=O)[C@H](CCCCN)NC(=O)[C@@H](N)Cc1c[nH]c2ccccc12)C(=O)N[C@@H](Cc1ccc(O)cc1)C(=O)O [compound 159] (H-WKSLNFKPGQSMY-OH; N-terminus and C-terminus assumed) | <90 | <90
3 | CSCC[C@H](NC(=O)[C@@H]1CCCN1C(=O)[C@H](CCC(N)=O)NC(=O)CNC(=O)[C@@H]1CCCN1C(=O)[C@H](CCCCN)NC(=O)[C@H](CC(C)C)NC(=O)[C@H](CO)NC(=O)[C@@H](NC(=O)[C@H](Cc1c[nH]c2ccccc12)NC(=O)[C@H](Cc1c[nH]cn1)NC(=O)[C@@H]1CCCN1)C(C)C)C(=O)N[C@@H](Cc1ccc(O)cc1)C(=O)O [compound 160] (H-PHWVSLKPGQPMY-OH; N-terminus and C-terminus assumed) | <90 | <90
4 | CSCC[C@H](NC(=O)[C@@H]1CCCN1C(=O)[C@H](CO)NC(=O)CNC(=O)[C@@H]1CCCN1C(=O)[C@H](CCCCN)NC(=O)[C@H](Cc1ccccc1)NC(=O)[C@H](C)NC(=O)[C@@H](NC(=O)[C@H](Cc1c[nH]c2ccccc12)NC(=O)[C@H](Cc1c[nH]cn1)NC(=O)[C@@H]1CCCN1)C(C)C)C(=O)N[C@@H](Cc1ccc(O)cc1)C(=O)O [compound 161] (H-PHWVAFKPGSPMY-OH; N-terminus and C-terminus assumed) | <90 | 90.52
5 | CSCC[C@H](NC(=O)[C@@H]1CCCN1C(=O)[C@H](CCC(N)=O)NC(=O)CNC(=O)[C@@H]1CCCN1C(=O)[C@H](CCCCN)NC(=O)[C@H](CC(C)C)NC(=O)[C@H](CCC(=O)O)NC(=O)[C@H](CC(C)C)NC(=O)[C@H](Cc1ccc(O)cc1)NC(=O)[C@H](Cc1c[nH]cn1)NC(=O)[C@@H](N)CCCCN)C(=O)N[C@@H](Cc1ccc(O)cc1)C(=O)O [compound 162] (H-KHYLELKPGQPMY-OH; N-terminus and C-terminus assumed) | <90 | <90
6 | CSCC[C@H](NC(=O)[C@H](Cc1c[nH]cn1)NC(=O)[C@@H](N)Cc1c[nH]c2ccccc12)C(=O)N[C@H](C(=O)N[C@@H](CCC(N)=O)C(=O)N[C@@H](CC(C)C)C(=O)N[C@@H](CCCCN)C(=O)N1CCC[C@H]1C(=O)NCC(=O)N[C@@H](CCC(=O)O)C(=O)N1CCC[C@H]1C(=O)N[C@@H](CCSC)C(=O)N[C@@H](Cc1ccc(O)cc1)C(=O)O)C(C)C [compound 163] (H-WHMVQLKPGEPMY-OH; N-terminus and C-terminus assumed) | <90 | <90
7 | CSCC[C@H](NC(=O)[C@@H]1CCCN1C(=O)[C@H](CCC(N)=O)NC(=O)CNC(=O)[C@@H]1CCCN1C(=O)[C@H](CCCCN)NC(=O)[C@H](CC(C)C)NC(=O)[C@H](CO)NC(=O)[C@H](CC(C)C)NC(=O)[C@@H](NC(=O)CNC(=O)[C@@H](N)CCCCN)[C@@H](C)O)C(=O)N[C@@H](Cc1ccc(O)cc1)C(=O)O [compound 164] (H-KGTLSLKPGQPMY-OH; N-terminus and C-terminus assumed) | <90 | <90
8 | CSCC[C@H](NC(=O)[C@@H]1CCCN1C(=O)[C@H](CCC(N)=O)NC(=O)CNC(=O)[C@@H]1CCCN1C(=O)[C@H](CCCCN)NC(=O)[C@H](Cc1ccccc1)NC(=O)[C@H](CCC(=O)O)NC(=O)[C@H](CC(C)C)NC(=O)[C@H](CO)NC(=O)[C@H](Cc1c[nH]cn1)NC(=O)[C@@H](N)CCCCN)C(=O)N[C@@H](Cc1ccc(O)cc1)C(=O)O [compound 165] (H-KHSLEFKPGQPMY-OH; N-terminus and C-terminus assumed) | <90 | <90
9 | CSCC[C@H](NC(=O)[C@@H]1CCCN1C(=O)[C@H](CCC(N)=O)NC(=O)CNC(=O)[C@H](CCCNC(=N)N)NC(=O)[C@H](CCCCN)NC(=O)[C@H](Cc1ccccc1)NC(=O)[C@H](CCC(N)=O)NC(=O)[C@@H](NC(=O)[C@H](Cc1ccccc1)NC(=O)[C@H](CCC(=O)O)NC(=O)[C@@H](N)Cc1c[nH]c2ccccc12)C(C)C)C(=O)N[C@@H](Cc1ccc(O)cc1)C(=O)O [compound 166] (H-WEFVQFKRGQPMY-OH; N-terminus and C-terminus assumed) | <90 | <90
10 | CSCC[C@H](NC(=O)[C@@H]1CCCN1C(=O)[C@H](CCC(N)=O)NC(=O)CNC(=O)[C@H](CCCNC(=N)N)NC(=O)[C@H](CCC(N)=O)NC(=O)[C@H](Cc1ccccc1)NC(=O)[C@H](CCC(=O)O)NC(=O)[C@H](CC(C)C)NC(=O)[C@H](Cc1c[nH]c2ccccc12)NC(=O)[C@H](Cc1c[nH]cn1)NC(=O)[C@@H](N)Cc1c[nH]c2ccccc12)C(=O)N[C@@H](Cc1ccc(O)cc1)C(=O)O [compound 167] (H-WHWLEFQRGQPMY-OH; N-terminus and C-terminus assumed) | <90 | <90
11 | CSCC[C@H](NC(=O)[C@@H]1CCCN1C(=O)[C@H](CCC(N)=O)NC(=O)CNC(=O)[C@@H]1CCCN1C(=O)[C@H](Cc1c[nH]cn1)NC(=O)[C@H](CC(C)C)NC(=O)[C@H](CCC(N)=O)NC(=O)[C@@H](NC(=O)[C@H](CC(C)C)NC(=O)[C@H](Cc1c[nH]cn1)NC(=O)[C@@H](N)CCCCN)C(C)C)C(=O)N[C@@H](Cc1ccc(O)cc1)C(=O)O [compound 168] (H-KHLVQLHPGQPMY-OH; N-terminus and C-terminus assumed) | <90 | <90
12 | CC[C@H](C)[C@H](NC(=O)[C@@H](NC(=O)[C@H](Cc1c[nH]cn1)NC(=O)[C@@H]1CCCN1)[C@@H](C)O)C(=O)N[C@@H](CCC(N)=O)C(=O)N[C@@H](CC(C)C)C(=O)N[C@@H](Cc1c[nH]c2ccccc12)C(=O)N[C@@H](CCCCN)C(=O)NCC(=O)N[C@@H](CCC(N)=O)C(=O)N1CCC[C@H]1C(=O)N[C@@H](CCSC)C(=O)N[C@@H](Cc1ccc(O)cc1)C(=O)O [compound 169] (H-PHTIQLWKGQPMY-OH; N-terminus and C-terminus assumed) | <90 | <90
13 | CSCC[C@H](NC(=O)[C@H](Cc1c[nH]cn1)NC(=O)[C@@H](N)Cc1c[nH]c2ccccc12)C(=O)N[C@@H](CC(C)C)C(=O)N[C@H](C(=O)N[C@@H](Cc1ccccc1)C(=O)N[C@@H](CCCCN)C(=O)N1CCC[C@H]1C(=O)NCC(=O)N[C@@H](CCC(N)=O)C(=O)N1CCC[C@H]1C(=O)N[C@@H](CCSC)C(=O)N[C@@H](Cc1ccc(O)cc1)C(=O)O)[C@@H](C)O [compound 170] (H-WHMLTFKPGQPMY-OH; N-terminus and C-terminus assumed) | <90 | <90
14 | CSCC[C@H](NC(=O)[C@@H]1CCCN1C(=O)[C@H](CCC(=O)O)NC(=O)CNC(=O)[C@@H]1CCCN1C(=O)[C@H](CCCCN)NC(=O)[C@H](Cc1ccccc1)NC(=O)[C@H](CCC(N)=O)NC(=O)CNC(=O)[C@H](CC(C)C)NC(=O)[C@H](Cc1c[nH]cn1)NC(=O)[C@@H](N)Cc1c[nH]c2ccccc12)C(=O)N[C@@H](Cc1ccc(O)cc1)C(=O)O [compound 171] (H-WHLGQFKPGEPMY-OH; N-terminus and C-terminus assumed) | <90 | <90
15 | CSCC[C@H](NC(=O)[C@@H]1CCCN1C(=O)[C@H](CCSC)NC(=O)CNC(=O)[C@H](CO)NC(=O)[C@H](CCCCN)NC(=O)[C@H](CC(C)C)NC(=O)[C@H](C)NC(=O)CNC(=O)[C@H](Cc1c[nH]c2ccccc12)NC(=O)[C@H](CO)NC(=O)[C@@H](N)Cc1c[nH]c2ccccc12)C(=O)N[C@@H](Cc1ccc(O)cc1)C(=O)O [compound 172] (H-WSWGALKSGMPMY-OH; N-terminus and C-terminus assumed) | <90 | <90
16 | CSCC[C@H](NC(=O)[C@@H]1CCCN1C(=O)[C@H](CCC(N)=O)NC(=O)CNC(=O)[C@H](CC(N)=O)NC(=O)[C@H](CCCCN)NC(=O)[C@H](CC(C)C)NC(=O)[C@H](CCC(N)=O)NC(=O)[C@@H](NC(=O)[C@H](Cc1c[nH]c2ccccc12)NC(=O)[C@H](Cc1c[nH]cn1)NC(=O)[C@@H]1CCCN1)C(C)C)C(=O)N[C@@H](Cc1ccc(O)cc1)C(=O)O [compound 173] (H-PHWVQLKNGQPMY-OH; N-terminus and C-terminus assumed) | <90 | <90
17 | CSCC[C@H](NC(=O)[C@@H]1CCCN1C(=O)[C@H](CCC(N)=O)NC(=O)CNC(=O)[C@@H]1CCCN1C(=O)[C@H](Cc1c[nH]cn1)NC(=O)[C@H](CC(C)C)NC(=O)[C@H](CCC(N)=O)NC(=O)[C@@H](NC(=O)[C@H](CO)NC(=O)[C@H](Cc1c[nH]cn1)NC(=O)[C@@H](N)Cc1c[nH]c2ccccc12)C(C)C)C(=O)N[C@@H](Cc1ccc(O)cc1)C(=O)O [compound 174] (H-WHSVQLHPGQPMY-OH; N-terminus and C-terminus assumed) | <90 | <90
